Experiments:
Format in all cases: functional
SF-295 = test: Antitumor activity against human SF295 cells
MOLT-4 = test: Antitumor activity against human MOLT4 cells
UACC-257 = test: Antitumor activity against human UACC257 cells
UO-31 = test: Antitumor activity against human UO31 cells
NCI-H522 = test: Antitumor activity against human NCI-H522 cells
[1] = Antitumor activity against human […] cells
HCC 2998 = test: Antitumor activity against human HCC2998 cells
K562 = test: Antitumor activity against human K562 cells
HCT-15 = test: Antitumor activity against human HCT15 cells
SF-539 = test: Antitumor activity against human SF539 cells
MDA-MB-231 = test: Antitumor activity against human MDA-MB-231 cells
NCI-H460 = test: Antitumor activity against human NCI-H460 cells
A549 = test: Antitumor activity against human A549 cells
KM12 = test: Antitumor activity against human KM12 cells
BT-549 = test: Antitumor activity against human BT549 cells
SNB-75 = test: Antitumor activity against human SNB75 cells
HL-60(TB) = test: Antitumor activity against human HL-60(TB) cells
SK-MEL-2 = test: Antitumor activity against human SK-MEL-2 cells
A498 = test: Antitumor activity against human A498 cells
OVCAR-4 = test: Antitumor activity against human OVCAR4 cells
Malme-3M = test: Antitumor activity against human MALME-3M cells
SK-OV-3 = test: Antitumor activity against human SKOV3 cells
CAKI-1 = test: Antitumor activity against human Caki1 cells
SNB-19 = test: Antitumor activity against human SNB19 cells
SR = test: Antitumor activity against human SR cells
OVCAR-3 = test: Antitumor activity against human OVCAR-3 cells
DU-145 = test: Antitumor activity against human DU145 cells
HOP-92 = test: Antitumor activity against human HOP92 cells
SF-268 = test: Antitumor activity against human SF268 cells
OVCAR-5 = test: Antitumor activity against human OVCAR5 cells
[2] = read-out: pLC50 (the source's name) (converted)

Q: For C#C[C@@H](O)/C=C/CCCCCCCCC/C=C\CCCCCC, which CC50 (SF-295; [2]) is on record?
A: 0.145 µM

Q: What about the TGI (SF-295; read-out: pTGI (converted)) of the same compound?
A: 0.0794 µM

Q: And the GI50 (MOLT-4)?
A: 0.00646 µM

Q: And the CC50 (MOLT-4; [2])?
A: 0.126 µM

Q: And the TGI (MOLT-4; read-out: pTGI (converted))?
A: 0.0269 µM

Q: What about the GI50 (UACC-257) of the same compound?
A: 0.0324 µM

Q: What about the CC50 (UACC-257; [2]) of the same compound?
A: 0.126 µM

Q: What about the TGI (UACC-257; read-out: pTGI (converted)) of the same compound?
A: 0.0646 µM

Q: What about the GI50 (UO-31) of the same compound?
A: 0.0525 µM

Q: And the CC50 (UO-31; [2])?
A: 0.151 µM

Q: And the TGI (UO-31; read-out: pTGI (converted))?
A: 0.0891 µM

Q: And the GI50 (NCI-H522)?
A: 0.000115 µM

Q: And the LC50 (NCI-H522)?
A: 0.00118 µM

Q: And the TGI (NCI-H522; read-out: pTGI (converted))?
A: 0.000436 µM

Q: And the GI50 [1]?
A: 0.00676 µM

Q: What about the CC50 [1, 2] of the same compound?
A: 0.129 µM

Q: What about the TGI ([1]; read-out: pTGI (converted)) of the same compound?
A: 0.0186 µM

Q: And the GI50 (HCC 2998)?
A: 0.0437 µM

Q: And the CC50 (HCC 2998; [2])?
A: 0.141 µM

Q: And the TGI (HCC 2998; read-out: pTGI (converted))?
A: 0.0794 µM

Q: What about the GI50 (K562) of the same compound?
A: 0.0309 µM

Q: What about the CC50 (K562; [2]) of the same compound?
A: 0.155 µM

Q: And the TGI (K562; read-out: pTGI (converted))?
A: 0.0692 µM

Q: And the GI50 (HCT-15)?
A: 0.0363 µM

Q: And the CC50 (HCT-15; [2])?
A: 0.132 µM

Q: And the TGI (HCT-15; read-out: pTGI (converted))?
A: 0.0692 µM

Q: What about the GI50 (SF-539) of the same compound?
A: 0.0447 µM

Q: What about the CC50 (SF-539; [2]) of the same compound?
A: 0.141 µM

Q: And the TGI (SF-539; read-out: pTGI (converted))?
A: 0.0794 µM

Q: And the GI50 (MDA-MB-231)?
A: 0.0479 µM

Q: What about the CC50 (MDA-MB-231; [2]) of the same compound?
A: 0.145 µM

Q: What about the TGI (MDA-MB-231; read-out: pTGI (converted)) of the same compound?
A: 0.0832 µM

Q: And the GI50 (NCI-H460)?
A: 0.0427 µM

Q: And the CC50 (NCI-H460; [2])?
A: 0.151 µM

Q: And the TGI (NCI-H460; read-out: pTGI (converted))?
A: 0.0794 µM

Q: What about the GI50 (A549) of the same compound?
A: 0.0457 µM

Q: And the CC50 (A549; [2])?
A: 0.148 µM

Q: And the TGI (A549; read-out: pTGI (converted))?
A: 0.0832 µM

Q: What about the GI50 (KM12) of the same compound?
A: 0.0372 µM

Q: And the CC50 (KM12; [2])?
A: 0.132 µM

Q: And the TGI (KM12; read-out: pTGI)?
A: 0.0708 µM

Q: What about the GI50 (BT-549) of the same compound?
A: 0.0389 µM

Q: And the CC50 (BT-549; [2])?
A: 0.135 µM

Q: And the TGI (BT-549; read-out: pTGI (converted))?
A: 0.0724 µM

Q: What about the GI50 (SNB-75) of the same compound?
A: 0.0123 µM

Q: And the CC50 (SNB-75; [2])?
A: 0.107 µM

Q: And the TGI (SNB-75; read-out: pTGI (converted))?
A: 0.0437 µM

Q: What about the GI50 (HL-60(TB)) of the same compound?
A: 0.0102 µM

Q: What about the CC50 (HL-60(TB); [2]) of the same compound?
A: 0.129 µM

Q: What about the TGI (HL-60(TB); read-out: pTGI (converted)) of the same compound?
A: 0.0363 µM

Q: What about the GI50 (SK-MEL-2) of the same compound?
A: 0.00813 µM

Q: And the CC50 (SK-MEL-2; [2])?
A: 0.0832 µM

Q: And the TGI (SK-MEL-2; read-out: pTGI (converted))?
A: 0.0234 µM

Q: And the GI50 (A498)?
A: 0.0589 µM

Q: What about the CC50 (A498; [2]) of the same compound?
A: 0.155 µM

Q: What about the TGI (A498; read-out: pTGI (converted)) of the same compound?
A: 0.0955 µM

Q: What about the GI50 (OVCAR-4) of the same compound?
A: 0.0186 µM

Q: What about the CC50 (OVCAR-4; [2]) of the same compound?
A: 0.112 µM

Q: What about the TGI (OVCAR-4; read-out: pTGI (converted)) of the same compound?
A: 0.0513 µM

Q: And the GI50 (Malme-3M)?
A: 0.00631 µM

Q: And the CC50 (Malme-3M; [2])?
A: 0.0724 µM

Q: What about the TGI (Malme-3M; read-out: pTGI (converted)) of the same compound?
A: 0.0204 µM

Q: What about the GI50 (SK-OV-3) of the same compound?
A: 0.0617 µM

Q: What about the CC50 (SK-OV-3; [2]) of the same compound?
A: 0.158 µM

Q: And the TGI (SK-OV-3; read-out: pTGI (converted))?
A: 0.1 µM

Q: And the GI50 (CAKI-1)?
A: 0.0525 µM

Q: What about the CC50 (CAKI-1; [2]) of the same compound?
A: 0.162 µM

Q: And the TGI (CAKI-1; read-out: pTGI (converted))?
A: 0.0912 µM

Q: And the GI50 (SNB-19)?
A: 0.0525 µM

Q: And the CC50 (SNB-19; [2])?
A: 0.151 µM

Q: What about the TGI (SNB-19; read-out: pTGI (converted)) of the same compound?
A: 0.0891 µM

Q: And the GI50 (SR)?
A: 0.0155 µM

Q: What about the CC50 (SR; [2]) of the same compound?
A: 0.174 µM

Q: And the TGI (SR; read-out: pTGI (converted))?
A: 0.055 µM

Q: What about the GI50 (OVCAR-3) of the same compound?
A: 0.049 µM

Q: And the CC50 (OVCAR-3; [2])?
A: 0.145 µM

Q: And the TGI (OVCAR-3; read-out: pTGI (converted))?
A: 0.0851 µM

Q: And the GI50 (DU-145)?
A: 0.0479 µM

Q: What about the CC50 (DU-145; [2]) of the same compound?
A: 0.145 µM

Q: And the TGI (DU-145; read-out: pTGI (converted))?
A: 0.0832 µM

Q: And the GI50 (HOP-92)?
A: 0.0468 µM

Q: And the CC50 (HOP-92; [2])?
A: 0.145 µM

Q: What about the TGI (HOP-92; read-out: pTGI (converted)) of the same compound?
A: 0.0832 µM

Q: And the GI50 (SF-268)?
A: 0.0389 µM

Q: And the CC50 (SF-268; [2])?
A: 0.138 µM

Q: And the TGI (SF-268; read-out: pTGI (converted))?
A: 0.0741 µM

Q: And the GI50 (OVCAR-5)?
A: 0.0468 µM

Q: What about the CC50 (OVCAR-5; [2]) of the same compound?
A: 0.145 µM

Q: And the TGI (OVCAR-5; read-out: pTGI (converted))?
A: 0.0813 µM
